Measurements: the supplement of paper PMC11061612

How the values were obtained:
Assay in all cases: Bliss excess, mean over the matrix (fraction); higher = more synergy
[1] = test system: MLMA (Other Blood Carcinomas)
Method in brief: (§1)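 Cell lines in DMEM/F12 or RPMI with 10% FBS were plated in 1536-well plates, held 24 hours at 37°C, 5% CO2, then given two-drug dose matrices for 72 hours (DMSO typically 0.2%). Viability was read by CellTiter-Glo 2.0 luminescence and scaled as inhibition from 0 (vehicle wells) to 1 (blank wells). Combination Emax is the second-highest inhibition in the matrix; Bliss excess is observed combination effect minus expected EA + EB − EA·EB, EA and EB being single-agent effects.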

[2] = test system: C-4-I (Cervical Carcinoma)
Method in brief: as §1

D-263MG (Glioblastoma) = test system: D-263MG (Glioblastoma)
Method in brief: as §1

[3] = test system: NUGC-3 (Gastric Carcinoma)
Method in brief: as §1

[4] = test system: NCI-H1915 (Non-Small Cell Lung Carcinoma)
Method in brief: as §1

[5] = test system: Hs-766T (Pancreatic Carcinoma)
Method in brief: as §1

[6] = test system: Caov-4 (Ovarian Carcinoma)
Method in brief: as §1

[7] = test system: OVCAR-4 (Ovarian Carcinoma)
Method in brief: as §1

[8] = test system: OSC-20 (Oral Cavity Carcinoma)
Method in brief: as §1

[9] = test system: AMO-1 (Plasma Cell Myeloma)
Method in brief: as §1

[10] = test system: VA-ES-BJ (Other Solid Carcinomas)
Method in brief: as §1

[11] = test system: HSC-4 (Oral Cavity Carcinoma)
Method in brief: as §1

[12] = test system: SCC-15 (Oral Cavity Carcinoma)
Method in brief: as §1

[13] = test system: EoL-1-cell (Acute Myeloid Leukemia)
Method in brief: as §1

[14] = test system: TE-1 (Esophageal Squamous Cell Carcinoma)
Method in brief: as §1

[15] = test system: LU-65 (Non-Small Cell Lung Carcinoma)
Method in brief: as §1

ACHN (Kidney Carcinoma) = test system: ACHN (Kidney Carcinoma)
Method in brief: as §1

YH-13 (Glioblastoma) = test system: YH-13 (Glioblastoma)
Method in brief: as §1

[16] = test system: NEC8 (Other Solid Carcinomas)
Method in brief: as §1

[17] = test system: PANC-04-03 (Pancreatic Carcinoma)
Method in brief: as §1

Row | SMILES | Bliss excess [1] | Bliss excess [2] | Bliss excess (D-263MG (Glioblastoma)) | Bliss excess [3] | Bliss excess [4] | Bliss excess [5] | Bliss excess [6] | Bliss excess [7] | Bliss excess [8] | Bliss excess [9] | Bliss excess [10] | Bliss excess [11] | Bliss excess [12] | Bliss excess [13] | Bliss excess [14] | Bliss excess [15] | Bliss excess (ACHN (Kidney Carcinoma)) | Bliss excess (YH-13 (Glioblastoma)) | Bliss excess [16] | Bliss excess [17]
1 | CN(CCO)CC[C@H](CSc1ccccc1)Nc1ccc(S(=O)(=O)NC(=O)c2ccc(N3CCC([C@@H](O)c4ccccc4-c4ccc(Cl)cc4)CC3)cc2)cc1S(=O)(=O)C(F)(F)F [AZD4320] + CN(C)CCCOc1ccc(-c2ccc3ncc4c(c3c2)n(C2CCOCC2)c(=O)n4C)cn1 [AZD0156] (first compound max 1 µM, 7x7, partner max 1 µM) | 0.0214 | -0.0024 | -0.0256 | -0.0477 | 0.0196 | -0.087 | -0.0319 | -0.0155 | -0.0595 | -0.0217 | -0.0379 | -0.0579 | -0.0538 | 0.024 | -0.033 | -0.016 | -0.0045 | -0.0489 | -0.0167 | -0.0652
2 | Cn1cnc2c(F)c(Nc3ccc(Br)cc3Cl)c(C(=O)NOCCO)cc21 [Selumetinib] + CCN(CCO)CCCOc1ccc2c(Nc3cc(CC(=O)Nc4cccc(F)c4)[nH]n3)ncnc2c1 [AZD2811] (first compound max 10 µM, 7x7, partner max 1 µM) | -0.026 | 0.0582 | -0.0385 | 0.0179 | -0.038 | -0.0659 | -0.0643 | -0.0468 | -0.0115 | 0.0538 | -0.0263 | -0.0442 | -0.0377 | 0.0206 | 0.0378 | -0.0082 | 0.0086 | -0.14 | -0.0166 | -0.0339
3 | COc1nnc2ccc(N3CCC(c4ccc(OCCN5CCN(C)C(=O)[C@H]5C)cc4)CC3)nn12 [AZD5153] + C=CCn1c(=O)c2cnc(Nc3ccc(N4CCN(C)CC4)cc3)nc2n1-c1cccc(C(C)(C)O)n1 [AZD1775] (first compound max 1 µM, partner max 1 µM) | -0.107 | -0.109 | -0.0619 | -0.0249 | -0.0565 | -0.0369 | -0.0316 | -0.0935 | 0.0068 | -0.0881 | 0.0076 | -0.0852 | -0.0427 | -0.011 | -0.0357 | -0.0806 | -0.0396 | -0.0451 | -0.0352 | -0.106
4 | COc1cccc(OCCCN)c1-c1cc(Nc2cnc(C#N)cn2)n[nH]1 [Prexasertib] + CCc1c2c(nc3ccc(O)cc13)-c1cc3c(c(=O)n1C2)COC(=O)[C@]3(O)CC [SN-38] (first compound max 1 µM, 7x7, partner max 0.3 µM) | -0.0732 | 0.0026 | 0.0688 | 0.0136 | 0.0086 | -0.0063 | -0.0332 | 0.0476 | -0.0477 | -0.04 | -0.044 | -0.0372 | -0.0236 | -0.0317 | -0.0025 | -0.0185 | -0.0755 | 0.0079 | 0.0129 | -0.067
5 | CC(=O)c1c(C)c2cnc(Nc3ccc(N4CCNCC4)cn3)nc2n(C2CCCC2)c1=O [Palbociclib] + CC1(C)CCC(CN2CCN(c3ccc(C(=O)NS(=O)(=O)c4ccc(NCC5CCOCC5)c([N+](=O)[O-])c4)c(Oc4cnc5[nH]ccc5c4)c3)CC2)=C(c2ccc(Cl)cc2)C1 [Venetoclax] (first compound max 10 µM, 7x7, partner max 1 µM) | -0.15 | -0.0464 | -0.0043 | -0.0178 | 0.0174 | -0.0544 | -0.057 | -0.0523 | -0.0545 | -0.0284 | 0.0104 | -0.0523 | -0.0589 | 0.0515 | -0.0385 | -0.0781 | 0.0329 | 0.0451 | -0.0265 | -0.0528
6 | Cc1c2c(nn1C)CSCc1cc(n(C)n1)CSc1cc(c3ccccc3c1)OCCCc1c(C(=O)O)n(C)c3c-2c(Cl)ccc13 [AZD5991] + C1CN(CCC1(C(=O)N[C@@H](CCO)C2=CC=C(C=C2)Cl)N)C3=NC=NC4=C3C=CN4 [Capivasertib] (first compound max 1 µM, 7x7, partner max 3 µM) | 0.0394 | 0.0117 | 0.083 | -0.0051 | 0.0103 | -0.0994 | 0.0354 | -0.0114 | 0.0036 | 0.0178 | -0.0109 | -0.0327 | 0.0106 | 0.0528 | -0.0107 | -0.013 | 0.0107 | -0.0229 | 0.0812 | -0.0094
7 | CC1(C)CCC(CN2CCN(c3ccc(C(=O)NS(=O)(=O)c4ccc(NCC5CCOCC5)c([N+](=O)[O-])c4)c(Oc4cnc5[nH]ccc5c4)c3)CC2)=C(c2ccc(Cl)cc2)C1 [Venetoclax] + C=CCn1c(=O)c2cnc(Nc3ccc(N4CCN(C)CC4)cc3)nc2n1-c1cccc(C(C)(C)O)n1 [AZD1775] (first compound max 1 µM, partner max 1 µM) | 0.0421 | -0.0535 | 0.0494 | -0.0656 | -0.009 | -0.0049 | 0.0534 | 0.0002 | -0.0522 | 0.0861 | -0.0373 | -0.0205 | -0.0159 | 0.0156 | -0.0667 | 0.041 | 0.0604 | -0.0085 | -0.0523 | -0.0597
8 | NC1(C(=O)N[C@@H](CCO)c2ccc(Cl)cc2)CCN(c2ncnc3[nH]ccc23)CC1 [Capivasertib] + CCN(CCO)CCCOc1ccc2c(Nc3cc(CC(=O)Nc4cccc(F)c4)[nH]n3)ncnc2c1 [AZD2811] (first compound max 10 µM, 7x7, partner max 1 µM) | -0.0388 | -0.0492 | 0.0163 | -0.0178 | -0.0294 | -0.0559 | 0.026 | -0.0092 | 0.0045 | 0.0783 | 0.0367 | -0.081 | 0.0105 | -0.0177 | -0.0347 | -0.215 | -0.0384 | -0.0317 | -0.0094 | -0.0142
9 | CS(=O)(=O)CCNCc1ccc(-c2ccc3ncnc(Nc4ccc(OCc5cccc(F)c5)c(Cl)c4)c3c2)o1 [Lapatinib] + C[C@@H](Oc1cc(-c2cnn(C3CCNCC3)c2)cnc1N)c1c(Cl)ccc(F)c1Cl [Crizotinib] (first compound max 10 µM, 7x7, partner max 10 µM) | -0.0721 | 0.0399 | -0.0621 | -0.142 | -0.0169 | -0.0535 | -0.0451 | -0.0231 | -0.0542 | -0.0458 | 0.005 | -0.0097 | -0.0015 | -0.0547 | 0.0266 | -0.0236 | -0.0558 | -0.0388 | -0.0234 | -0.0586
10 | CC1(C)CCC(CN2CCN(c3ccc(C(=O)NS(=O)(=O)c4ccc(NCC5CCOCC5)c([N+](=O)[O-])c4)c(Oc4cnc5[nH]ccc5c4)c3)CC2)=C(c2ccc(Cl)cc2)C1 [Venetoclax] + Cc1cc2ncnn2cc1Nc1ncc2c(n1)n(C1CCOCC1)c(=O)n2C [AZD7648] (first compound max 1 µM, 7x7, partner max 10 µM) | -0.0323 | 0.0131 | -0.0572 | 0.0247 | 0.0029 | -0.0756 | -0.0492 | -0.0163 | -0.0062 | -0.0116 | -0.0341 | -0.058 | -0.0303 | 0.0489 | -0.0451 | -0.0418 | -0.0244 | -0.0484 | 0.0282 | -0.0617
11 | CC1(C)CCC(CN2CCN(c3ccc(C(=O)NS(=O)(=O)c4ccc(NCC5CCOCC5)c([N+](=O)[O-])c4)c(Oc4cnc5[nH]ccc5c4)c3)CC2)=C(c2ccc(Cl)cc2)C1 [Venetoclax] + C1CN(CCC1(C(=O)N[C@@H](CCO)C2=CC=C(C=C2)Cl)N)C3=NC=NC4=C3C=CN4 [Capivasertib] (first compound max 1 µM, 7x7, partner max 3 µM) | -0.0425 | -0.0099 | -0.0151 | -0.0102 | -0.0362 | -0.0635 | -0.0458 | -0.0393 | -0.0354 | -0.0267 | -0.0357 | -0.0281 | -0.0639 | 0.0239 | -0.0236 | -0.0377 | -0.0358 | -0.039 | -0.0125 | -0.0732
12 | CC(=O)Nc1cccc(-n2c(=O)n(C3CC3)c(=O)c3c(Nc4ccc(I)cc4F)n(C)c(=O)c(C)c32)c1 [Trametinib] + Cc1nc(-c2cn3c(n2)-c2ccc(-c4cnn(C(C)(C)C(N)=O)c4)cc2OCC3)n(C(C)C)n1 [Taselisib] (first compound max 1 µM, 7x7, partner max 10 µM) | -0.036 | 0.229 | 0.132 | 0.104 | 0.045 | 0.0113 | 0.0567 | 0.104 | 0.0925 | 0.316 | -0.0328 | 0.105 | 0.171 | 0.232 | 0.127 | 0.0994 | 0.132 | 0.0704 | 0.112 | 0.101
13 | NC1(C(=O)N[C@@H](CCO)c2ccc(Cl)cc2)CCN(c2ncnc3[nH]ccc23)CC1 [Capivasertib] + CC(=O)c1c(C)c2cnc(Nc3ccc(N4CCNCC4)cn3)nc2n(C2CCCC2)c1=O [Palbociclib] (first compound max 10 µM, 7x7, partner max 10 µM) | -0.0769 | -0.0334 | 0.0117 | 0.0372 | -0.0247 | 0.0056 | 0.0152 | -0.0517 | -0.0005 | 0.0364 | 0.0144 | -0.0777 | -0.0456 | -0.0039 | -0.0276 | -0.151 | 0.003 | 0.0004 | -0.0104 | -0.0351
14 | Cc1c2c(nn1C)CSCc1cc(n(C)n1)CSc1cc(c3ccccc3c1)OCCCc1c(C(=O)O)n(C)c3c-2c(Cl)ccc13 [AZD5991] + CN(C)CCCOc1ccc(-c2ccc3ncc4c(c3c2)n(C2CCOCC2)c(=O)n4C)cn1 [AZD0156] (first compound max 1 µM, 7x7, partner max 1 µM) | -0.0056 | 0.0063 | 0.0047 | 0.0167 | -0.0186 | -0.0006 | -0.0035 | 0.0076 | 0.0236 | 0.0058 | -0.0027 | -0.0955 | -0.0048 | -0.006 | -0.0702 | -0.001 | 0.0086 | -0.0465 | 0.0201 | 0.0116
